Data: ChEMBL document CHEMBL3421558, “Structure activity relationship of substituted 1,5-naphthyridine analogs of oxabicyclooctane-linked novel bacterial topoisomerase inhibitors as broad-spectrum antibacterial agents (Part-4)” (Bioorg Med Chem Lett, 2015)
Converted amounts (≈) assume the structure as drawn.

test system: Staphylococcus aureus; assay: Antimicrobial activity against Staphylococcus aureus Smith by micro broth dilution or agar based method; type: functional; conditions: not given

| SMILES | MIC [µg/mL] |
| --- | --- |
| COc1ccc2ncc(C#N)c(CC(O)C34CCC(NCc5ccc6c(n5)NC(=O)CO6)(CC3)CO4)c2n1 (stereo in doubt; 88) | 0.031 (≈ 0.06 µM) |
| COc1ccc2ncc(C#N)c(CC(O)C34CCC(NCc5ccc6c(n5)NC(=O)CO6)(CC3)CO4)c2n1 (single isomer, unassigned; (-)) | 0.063 (≈ 0.122 µM) |

same assay, conditions: Staphylococcus aureus, Smith; read-out: MIC

| SMILES | MIC [µg/mL] |
| --- | --- |
| Nc1ccc2ncc(F)c(CCC34CCC(NCc5ccc6c(n5)NC(=O)CO6)(CC3)CO4)c2n1 | 2 (≈ 4.18 µM) |
| COc1nc2c(CCC34CCC(NCc5ccc6c(n5)NC(=O)CO6)(CC3)CO4)ccnc2cc1C#N | 16 (≈ 32 µM) |
| O=C1COc2ccc(CNC34CCC(CCc5c(F)cnc6ccc(C(=O)O)nc56)(CC3)OC4)nc2N1 | 16 (≈ 31.5 µM) |
| Cc1nc2c(CCC34CCC(NCc5ccc6c(n5)NC(=O)CO6)(CC3)CO4)ccnc2cc1C#N | 16 (≈ 33 µM) |
| CN(C)c1nc2c(CCC34CCC(NCc5ccc6c(n5)NC(=O)CO6)(CC3)CO4)ccnc2cc1C(F)(F)F | 8 (≈ 14.4 µM) |
| COc1ccc2ncc(C(N)=O)c(CCC34CCC(NCc5ccc6c(n5)NC(=O)CO6)(CC3)CO4)c2n1 | 4 (≈ 7.71 µM) |
| O=C1COc2ccc(CNC34CCC(CCc5c(F)cnc6cccnc56)(CC3)OC4)nc2N1 | 0.5 (≈ 1.08 µM) |

test system: Pseudomonas aeruginosa; assay: Antimicrobial activity against Pseudomonas aeruginosa PAO1 by micro broth dilution or agar based method; type: functional; conditions: not given

| SMILES | MIC [µg/mL] |
| --- | --- |
| COc1ccc2ncc(C#N)c(CC(O)C34CCC(NCc5ccc6c(n5)NC(=O)CO6)(CC3)CO4)c2n1 (single isomer, unassigned; (-)) | 16 (≈ 31 µM) |

same assay, conditions: Pseudomonas aeruginosa, PAO1; read-out: MIC

| SMILES | MIC [µg/mL] |
| --- | --- |
| Nc1ccc2ncc(F)c(CCC34CCC(NCc5ccc6c(n5)NC(=O)CO6)(CC3)CO4)c2n1 | 16 (≈ 33.4 µM) |
| COc1nc2c(CCC34CCC(NCc5ccc6c(n5)NC(=O)CO6)(CC3)CO4)ccnc2cc1C#N | 64 (≈ 128 µM) |
| O=C1COc2ccc(CNC34CCC(CCc5c(F)cnc6ccc(C(=O)O)nc56)(CC3)OC4)nc2N1 | 16 (≈ 31.5 µM) |
| Cc1nc2c(CCC34CCC(NCc5ccc6c(n5)NC(=O)CO6)(CC3)CO4)ccnc2cc1C#N | 16 (≈ 33 µM) |
| CN(C)c1nc2c(CCC34CCC(NCc5ccc6c(n5)NC(=O)CO6)(CC3)CO4)ccnc2cc1C(F)(F)F | 8 (≈ 14.4 µM) |
| COc1ccc2ncc(C(N)=O)c(CCC34CCC(NCc5ccc6c(n5)NC(=O)CO6)(CC3)CO4)c2n1 | 32 (≈ 61.7 µM) |
| O=C1COc2ccc(CNC34CCC(CCc5c(F)cnc6cccnc56)(CC3)OC4)nc2N1 | 16 (≈ 34.5 µM) |
| COc1ccc2ncc(C#N)c(CC(O)C34CCC(NCc5ccc6c(n5)NC(=O)CO6)(CC3)CO4)c2n1 (stereo in doubt; 88) | 8 (≈ 15.5 µM) |

test system: Staphylococcus aureus; assay: Antimicrobial activity against methicillin-resistant Staphylococcus aureus OIT971 by micro broth dilution or agar based method; type: functional; conditions: not given

| SMILES | MIC [µg/mL] |
| --- | --- |
| Nc1ccc2ncc(F)c(CCC34CCC(NCc5ccc6c(n5)NC(=O)CO6)(CC3)CO4)c2n1 | 1 (≈ 2.09 µM) |
| COc1nc2c(CCC34CCC(NCc5ccc6c(n5)NC(=O)CO6)(CC3)CO4)ccnc2cc1C#N | 2 (≈ 4 µM) |
| O=C1COc2ccc(CNC34CCC(CCc5c(F)cnc6ccc(C(=O)O)nc56)(CC3)OC4)nc2N1 | 16 (≈ 31.5 µM) |
| Cc1nc2c(CCC34CCC(NCc5ccc6c(n5)NC(=O)CO6)(CC3)CO4)ccnc2cc1C#N | 16 (≈ 33 µM) |
| CN(C)c1nc2c(CCC34CCC(NCc5ccc6c(n5)NC(=O)CO6)(CC3)CO4)ccnc2cc1C(F)(F)F | 8 (≈ 14.4 µM) |
| O=C1COc2ccc(CNC34CCC(CCc5c(F)cnc6cccnc56)(CC3)OC4)nc2N1 | 0.25 (≈ 0.539 µM) |
| COc1ccc2ncc(C#N)c(CC(O)C34CCC(NCc5ccc6c(n5)NC(=O)CO6)(CC3)CO4)c2n1 (stereo in doubt; 88) | 0.031 (≈ 0.06 µM) |

test system: Enterococcus faecium; assay: Antimicrobial activity against VanA expressing vancomycin-resistant Enterococcus faecium by micro broth dilution or agar based method; type: functional; conditions: not given

| SMILES | MIC [µg/mL] |
| --- | --- |
| COc1ccc2ncc(C#N)c(CC(O)C34CCC(NCc5ccc6c(n5)NC(=O)CO6)(CC3)CO4)c2n1 (single isomer, unassigned; (-)) | 2 (≈ 3.87 µM) |

same assay, conditions: Enterococcus faecium; read-out: MIC

| SMILES | MIC [µg/mL] |
| --- | --- |
| Nc1ccc2ncc(F)c(CCC34CCC(NCc5ccc6c(n5)NC(=O)CO6)(CC3)CO4)c2n1 | 8 (≈ 16.7 µM) |
| COc1nc2c(CCC34CCC(NCc5ccc6c(n5)NC(=O)CO6)(CC3)CO4)ccnc2cc1C#N | 64 (≈ 128 µM) |
| O=C1COc2ccc(CNC34CCC(CCc5c(F)cnc6ccc(C(=O)O)nc56)(CC3)OC4)nc2N1 | 16 (≈ 31.5 µM) |
| Cc1nc2c(CCC34CCC(NCc5ccc6c(n5)NC(=O)CO6)(CC3)CO4)ccnc2cc1C#N | 16 (≈ 33 µM) |
| CN(C)c1nc2c(CCC34CCC(NCc5ccc6c(n5)NC(=O)CO6)(CC3)CO4)ccnc2cc1C(F)(F)F | 8 (≈ 14.4 µM) |
| COc1ccc2ncc(C(N)=O)c(CCC34CCC(NCc5ccc6c(n5)NC(=O)CO6)(CC3)CO4)c2n1 | 16 (≈ 30.9 µM) |
| O=C1COc2ccc(CNC34CCC(CCc5c(F)cnc6cccnc56)(CC3)OC4)nc2N1 | 4 (≈ 8.63 µM) |
| COc1ccc2ncc(C#N)c(CC(O)C34CCC(NCc5ccc6c(n5)NC(=O)CO6)(CC3)CO4)c2n1 (stereo in doubt; 88) | 1 (≈ 1.94 µM) |

test system: Escherichia coli; assay: Antimicrobial activity against Escherichia coli ATCC 25922 by micro broth dilution or agar based method; type: functional; conditions: not given

| SMILES | MIC [µg/mL] |
| --- | --- |
| COc1ccc2ncc(C#N)c(CC(O)C34CCC(NCc5ccc6c(n5)NC(=O)CO6)(CC3)CO4)c2n1 (single isomer, unassigned; (-)) | 4 (≈ 7.74 µM) |

same assay, conditions: Escherichia coli, ATCC 25922; read-out: MIC

| SMILES | MIC [µg/mL] |
| --- | --- |
| Nc1ccc2ncc(F)c(CCC34CCC(NCc5ccc6c(n5)NC(=O)CO6)(CC3)CO4)c2n1 | 8 (≈ 16.7 µM) |
| COc1nc2c(CCC34CCC(NCc5ccc6c(n5)NC(=O)CO6)(CC3)CO4)ccnc2cc1C#N | 64 (≈ 128 µM) |
| O=C1COc2ccc(CNC34CCC(CCc5c(F)cnc6ccc(C(=O)O)nc56)(CC3)OC4)nc2N1 | 16 (≈ 31.5 µM) |
| Cc1nc2c(CCC34CCC(NCc5ccc6c(n5)NC(=O)CO6)(CC3)CO4)ccnc2cc1C#N | 16 (≈ 33 µM) |
| CN(C)c1nc2c(CCC34CCC(NCc5ccc6c(n5)NC(=O)CO6)(CC3)CO4)ccnc2cc1C(F)(F)F | 8 (≈ 14.4 µM) |
| COc1ccc2ncc(C(N)=O)c(CCC34CCC(NCc5ccc6c(n5)NC(=O)CO6)(CC3)CO4)c2n1 | 32 (≈ 61.7 µM) |
| O=C1COc2ccc(CNC34CCC(CCc5c(F)cnc6cccnc56)(CC3)OC4)nc2N1 | 4 (≈ 8.63 µM) |
| COc1ccc2ncc(C#N)c(CC(O)C34CCC(NCc5ccc6c(n5)NC(=O)CO6)(CC3)CO4)c2n1 (stereo in doubt; 88) | 4 (≈ 7.74 µM) |

test system: Streptococcus pneumoniae; assay: Antimicrobial activity against Streptococcus pneumoniae IID553 by micro broth dilution or agar based method; type: functional; conditions: not given

| SMILES | MIC [µg/mL] |
| --- | --- |
| COc1ccc2ncc(C#N)c(CC(O)C34CCC(NCc5ccc6c(n5)NC(=O)CO6)(CC3)CO4)c2n1 (single isomer, unassigned; (-)) | 0.25 (≈ 0.484 µM) |

same assay, conditions: Streptococcus pneumoniae, IID553; read-out: MIC

| SMILES | MIC [µg/mL] |
| --- | --- |
| Nc1ccc2ncc(F)c(CCC34CCC(NCc5ccc6c(n5)NC(=O)CO6)(CC3)CO4)c2n1 | 16 (≈ 33.4 µM) |
| COc1nc2c(CCC34CCC(NCc5ccc6c(n5)NC(=O)CO6)(CC3)CO4)ccnc2cc1C#N | 64 (≈ 128 µM) |
| O=C1COc2ccc(CNC34CCC(CCc5c(F)cnc6ccc(C(=O)O)nc56)(CC3)OC4)nc2N1 | 16 (≈ 31.5 µM) |
| Cc1nc2c(CCC34CCC(NCc5ccc6c(n5)NC(=O)CO6)(CC3)CO4)ccnc2cc1C#N | 16 (≈ 33 µM) |
| CN(C)c1nc2c(CCC34CCC(NCc5ccc6c(n5)NC(=O)CO6)(CC3)CO4)ccnc2cc1C(F)(F)F | 8 (≈ 14.4 µM) |
| COc1ccc2ncc(C(N)=O)c(CCC34CCC(NCc5ccc6c(n5)NC(=O)CO6)(CC3)CO4)c2n1 | 2 (≈ 3.86 µM) |
| O=C1COc2ccc(CNC34CCC(CCc5c(F)cnc6cccnc56)(CC3)OC4)nc2N1 | 4 (≈ 8.63 µM) |
| COc1ccc2ncc(C#N)c(CC(O)C34CCC(NCc5ccc6c(n5)NC(=O)CO6)(CC3)CO4)c2n1 (stereo in doubt; 88) | 0.25 (≈ 0.484 µM) |

test system: Acinetobacter baumannii; assay: Antimicrobial activity against Acinetobacter baumannii IID876 by micro broth dilution or agar based method; type: functional; conditions: not given

| SMILES | MIC [µg/mL] |
| --- | --- |
| COc1ccc2ncc(C#N)c(CC(O)C34CCC(NCc5ccc6c(n5)NC(=O)CO6)(CC3)CO4)c2n1 (single isomer, unassigned; (-)) | 1 (≈ 1.94 µM) |

same assay, conditions: Acinetobacter baumannii, IID876; read-out: MIC

| SMILES | MIC [µg/mL] |
| --- | --- |
| Nc1ccc2ncc(F)c(CCC34CCC(NCc5ccc6c(n5)NC(=O)CO6)(CC3)CO4)c2n1 | 2 (≈ 4.18 µM) |
| COc1nc2c(CCC34CCC(NCc5ccc6c(n5)NC(=O)CO6)(CC3)CO4)ccnc2cc1C#N | 64 (≈ 128 µM) |
| O=C1COc2ccc(CNC34CCC(CCc5c(F)cnc6ccc(C(=O)O)nc56)(CC3)OC4)nc2N1 | 16 (≈ 31.5 µM) |
| Cc1nc2c(CCC34CCC(NCc5ccc6c(n5)NC(=O)CO6)(CC3)CO4)ccnc2cc1C#N | 16 (≈ 33 µM) |
| CN(C)c1nc2c(CCC34CCC(NCc5ccc6c(n5)NC(=O)CO6)(CC3)CO4)ccnc2cc1C(F)(F)F | 8 (≈ 14.4 µM) |
| COc1ccc2ncc(C(N)=O)c(CCC34CCC(NCc5ccc6c(n5)NC(=O)CO6)(CC3)CO4)c2n1 | 32 (≈ 61.7 µM) |
| O=C1COc2ccc(CNC34CCC(CCc5c(F)cnc6cccnc56)(CC3)OC4)nc2N1 | 1 (≈ 2.16 µM) |
| COc1ccc2ncc(C#N)c(CC(O)C34CCC(NCc5ccc6c(n5)NC(=O)CO6)(CC3)CO4)c2n1 (stereo in doubt; 88) | 0.5 (≈ 0.968 µM) |
